This note sets out measurements from EP0506704B1, “USE OF ALKYL PHOSPHOLIPIDS AS ANTIVIRAL DRUGS, AS WELL AS NEW COMPOUNDS” (BOEHRINGER MANNHEIM GMBH, priority 1989, dated 1991).

Structures are written as SMILES. Values after ≈ are worked out from the molar mass of the structure shown.

This assay concerns HIV. As to the kind of experiment: Anti-HIV activity in cell culture: inhibition of HIV replication, virus in supernatant quantified by reinfection of human fetal lung cells. Type of assay: cell-based. The following applies: Human immunodeficiency virus 1; chronically HIV-infected human fetal lung cells; concentration causing 50 % inhibition of virus replication. From the text:
Die Verbindungen der vorliegenden Erfindung weisen eine antivirale Wirksamkeit auf und können somit beispielsweise zur Behandlung von HIV-bedingten Krankheiten oder Infektionen eingesetzt werden. Der Nachweis der Anti-HIV-Wirksamkeit erfolgt in Zell- oder Gewebekulturen, wobei die direkte Hemmung der HIV-Replikation gemessen wird.
Zunächst erfolgt eine Behandlung von HIV-infizierten humanen T-Lymphomzellen bzw. HIV-infizierten humanen fetalen Lungenzellen mit der zu untersuchenden Verbindung in Verdünnungsreihe. Anschließend erfolgt eine Quantifizierung der Virusmenge im Überstand durch Neuinfektion von humanen fetalen Lungenzellen. Die Abnahme der entstandenen HIV-positiven Zellkolonien gilt als direktes Maß für die antivirale Wirksamkeit der untersuchten Verbindung.
In der folgenden Tabelle sind diejenigen Konzentrationen angegeben, die eine 50 %-ige Hemmung der Virusreplikation bewirken (IC₅₀-Werte).
In turn, `CCCCCCCCCCCCSC(CCCCCCCCCCCC)COP(=O)([O-])OCC[N+](C)(C)C` (stereo not drawn) [Beispiel 1, 2-Dodecylmercapto-tetradecyl-1-phosphorsäure-monocholinester] yielded an IC50 of 30 µg/mL (≈ 51.7 µM).
The molecule `CCCCCCCCCCCCOC(CCCCCCCCCCCC)COP(=O)([O-])OCC[N+](C)(C)C` (stereo not drawn) [Beispiel 2, 2-Dodecyloxytetradecvl-1-phosphorsäure-monocholinester] showed an IC50 of 1 µg/mL (≈ 1.77 µM). This IC50 lies about 30-fold lower than the previous one.
For the molecule `CCCCCCCCCCCCSCC(CCCCCCCCCCC)COP(=O)([O-])OCC[N+](C)(C)C` (stereo not drawn) [Beispiel 3, 2-Dodecylmercaptomethyl-tridecyl-1-phosphorsäure-monocholinester], the IC50 is 12 µg/mL (≈ 20.7 µM).

For orientation: IC50 means the midpoint of a concentration-inhibition curve.
